Assay results reported in US10047345B2, “Culturing of mesenchymal stem cells with FGF4 and nicotinamide” (Gamida-Cell Ltd., priority 2012, dated 2018).
Entries after “also recorded” stand apart in the source; their conditions may differ.

How the values were obtained:
mesenchymal stem cells [1] = assay: Expansion of mesenchymal stem cells with growth factors with and without nicotinamide (cumulative cell count); format: cell-based, human; details: NAM 5 mM, FGF4 50 ng/ml
Protocol: Bone marrow derived and adipose tissue derived mesenchymal cells were isolated based on their plastic adherence potential in expansion medium containing: High glucose DMEM and 10% Fetal Bovine Serum (FBS, Hyclone, Logan, Utah, USA) supplemented with 0.05 mg/ml Gentamicin (Sigma) and 2 mM L-glutamine (Biological Industries, Israel). Cells were allowed to adhere for 3-4 days and non-adherent cells were washed out with medium changes. The medium was further exchanged with fresh medium every 3-4 days.
Once adherent cells reached approximately 80-90% confluency, they were detached with 0.25% trypsin-EDTA (Sigma), washed twice in DMEM and 10% Fetal Bovine Serum, with centrifugation, 400 g, 5 minutes, and replated at a 1:2 to 1:1000 dilution under the same culture conditions.
Cell number was measured using Cedex Automated Cell Counter (Innovatis). The cells were diluted 1:2 in Trypan Blue (Sigma) and cell number was measured automatically under microscope. […]
Mesenchymal stem cells were selected and cultured in the presence of particular growth factors (basic fibroblast growth factor—bFGF, heparin binding epidermal growth factor—HB-EGF, fibroblast growth factor 4—FGF-4 and platelet derived growth factor, homodimer, subunit B, PDGF-BB) in the presence and absence of nicotinamide for three or four passages and the number and size of the cells was calculated. […]

[2] = test system: adipose tissue derived mesenchymal stem cells; assay: Expansion and phenotype of adipose tissue derived MSCs with nicotinamide; format: cell-based, human
Protocol: (§1) Cell number was measured using Cedex Automated Cell Counter (Innovatis). The cells were diluted 1:2 in Trypan Blue (Sigma) and cell number was measured automatically under microscope.

mesenchymal stem cells [3] = assay: CFU-F assay; format: cell-based, human; details: 5 mM nicotinamide
Protocol: Cultured MSCs were seeded in 6-well plates at density of 50-100 cells/cm^2 and maintained with DMEM and 10% FBS. After 14 days the cells were fixed using 10% cold Formalin (Sigma) and stained with Harris Hematoxylin (Sigma). Clones (cluster of more than 50 cells with evident epicenter) are stained blue-purple and counted using microscope.

[4] = test system: bone marrow-derived mesenchymal stem cells; assay: Senescence evaluation assay (beta-galactosidase staining); format: cell-based, human; details: 5 passages, 5 mM NAM, X-Gal staining
Protocol: Cultured MSCs were stained using the Senescence beta-Galactosidase Staining Kit (Cell Signaling). The cells are fixed and stained for detection of beta-Galactosidase activity at pH 6 using X-Gal and incubation overnight in 37° C. in dry incubator.

mesenchymal stem cells [5] = assay: In vitro wound healing assay; format: cell-based, human; details: passage 3, 4 days post wound formation
Protocol: Wound was performed in MSCs cultures at ˜70% confluence using 200 μl or 1000 μl tip. Four days later the cells were fixated using 10% cold Formalin (Sigma) and stained with Harris Hematoxylin (Sigma). The in-vitro wound healing process was evaluated using microscope.

[6] = test system: bone marrow mesenchymal stem cells; assay: Growth factor secretion into conditioned medium (ELISA); format: cell-based, human; details: passage 4, 5 mM NAM, 50 ng/ml FGF4
Protocol: In some experiments, the adherent cells were cultured with or without nicotinamide and indicated factors, and 24 hours before passage 4, and the medium replaced with medium without fetal bovine serum or FGF4. Medium from MSC cultured as indicated, and depleted of fetal bovine serum and FGF4 24 hours before passage 4 was collected and assayed by ELISA for growth factors and immune-related factors secreted into the medium ([…] HGF, transforming growth factor beta TGF-β, keratinocyte growth factor KGF and interleukin 6 IL-6). ELISA was carried out using solid phase sandwich ELISA kits specific for human KGF (R&D systems, cat#DKG00), IL-6 (R&D systems, cat#D6050), TGF-β1 (R&D systems, cat#DB100B), HGF (R&D systems, cat#DHG00).

[7] = test system: adipose-derived mesenchymal stem cells; assay: Adipose-derived MSC proliferation and cell size with nicotinamide with or without FGF4; format: cell-based, human; details: Cedex cell counter; 5 mM NAM, 50 ng/ml FGF4
Protocol: as §1

[8] = test system: umbilical cord-derived CD133+ hematopoietic stem cells; assay: Differentiation and proliferation of ex-vivo cultured hematopoietic stem cells (FACS surface markers); format: cell-based
Protocol: Umbilical cord-derived hematopoietic stem cells were isolated using CD133 microbeads and CliniMACS® separator (Miltenyi, Inc. Auburn, Calif.), and cultured for 3 weeks in MEMα supplemented with 50 ng/ml TPO, IL6, SCF, Flt3, fetal bovine serum, ±2.5 or 5 mM nicotinamide, and/or 10, 50 or 200 ng/ml FGF4. After 3 weeks in culture the cells were stained for surface markers (CD38, CD133, CD33, CD19) and the cell populations determined by FACS analysis (see below). Results are expressed as percentage of total population assayed.
At different time points the cells were detached with 0.25% trypsin-EDTA. The cells were washed with a PBS solution containing 1% BSA, and stained (at 4° C. for 30 min) with either fluorescein isothiocyanate (FITC) or phycoerythrin (PE)-conjugated antibodies: 105 PE, 105 FITC (Serotec, Raleigh, N.C.), 45 FITC, 14 FITC, HLA-DR FITC, 106 PE, 31 PE (BD, Franklin Lakes N.J.), 34 PE (Dako, Glostrup, Denmark), 73 PE, HLA class1 PE, 49b PE (Pharmingen, San Diego, Calif.), 29 PE, 44 PE, 54 FITC, 59 PE, 90 PE (BioLegend, San Diego, Calif.). CD133—(AC141) PE (Miltenyi, Auburn, Calif.), CD38 FITC (Dako, Glostrup, Denmark), CD19 FITC (BD Biosciences, Franklin Lakes N.J.), CD33 FITC (BD Bioscience, Franklin Lakes N.J.).
The cells were then washed in the above buffer and analyzed using a FACScalibur® flow cytometer (Becton Dickinson, Franklin Lakes N.J.). The cells were passed at a rate of up to 1000 cells/second, using a 488 nm argon laser beam as the light source for excitation. Emission of 10000 cells was measured using logarithmic amplification, and analyzed using the CellQuest software (Becton Dickinson). Cells stained with FITC- and PE-conjugated isotype control antibodies were used to determine background fluorescence.
Umbilical cord-derived CD133+ hematopoietic stem cells were isolated and cultured for 3 weeks in medium supplemented with early-acting growth factors and fetal bovine serum, nicotinamide and/or FGF4. After 3 weeks in culture the cells were stained for surface markers (CD38, CD133, CD19) and the cell populations determined by FACS analysis. Cell proliferation was assessed by counting total cells at three weeks.

NC(=O)c1cccnc1 [nicotinamide, Nicotinamide]
effect on the ability of FGF4 to increase proliferation of mesenchymal stem cells (mesenchymal stem cells [1]): potentiating effect
differentiation state (surface marker composition) after expansion in nicotinamide ([2]; at least six passages): without induction of differentiation
adipose derived mesenchymal stem cell expansion in culture ([2]; nicotinamide added from passage 3): substantially improved
cumulative CFU-F count (mesenchymal stem cells [3]): increases the cumulative CFU-F count
amount of senescent cells [4]: reduced
wound closure by MSCs (mesenchymal stem cells [5]): higher ability to perform wound closure
hepatocyte growth factor (HGF) in conditioned medium [6]: elevated levels
interleukin 6 (IL-6) secreted into conditioned medium [6]: reduced levels; also recorded: reduction
keratinocyte growth factor (KGF) in conditioned medium [6]: elevated levels
transforming growth factor beta (TGF-β) in conditioned medium [6]: elevated levels
prevalence of smaller size cells in adipose derived MSC cultures [7]: increased prevalence of smaller size cells
degree of differentiation of hematopoietic progenitor cells (CD38 and CD133-expressing fraction) ([8]; 3 weeks culture, nicotinamide 2.5 or 5 mM, FGF4 10 to 200 ng/ml): decreases significantly
fraction of undifferentiated early progenitors (CD38-CD133+) ([8]; 3 weeks, FIG. 35): significantly greater fraction
differentiation (CD38+ cells) ([8]; 3 weeks, FIG. 36): significant inhibition of differentiation
myeloid lineage differentiation (CD33+ cells) ([8]; 3 weeks, FIG. 37): significant inhibition
lymphoid lineage differentiation (CD19+ cells) ([8]; 3 weeks, FIG. 38): striking inhibition
abundance of committed myeloid or lymphoid cells (CD33, CD19) ([8]; three week cultures): consistently reduced the committed cell fraction
